Key:
human TLR7 = target: T1, human TLR7 (Homo sapiens, UniProt Q9NYK1); assay: HEK-Blue TLR7 reporter assay (SEAP reporter); format: cell-based; settings: HEK-Blue TLR7 cells, 18 h treatment, SEAP readout; average if more than one assay; read-out: TLR7 Agonism HEK Blue ™ Assay EC50
T1 construct: host or cells: HEK-Blue TLR7 cells (engineered human embryonic kidney cells)
T1 sequence (Q9NYK1 27-1049): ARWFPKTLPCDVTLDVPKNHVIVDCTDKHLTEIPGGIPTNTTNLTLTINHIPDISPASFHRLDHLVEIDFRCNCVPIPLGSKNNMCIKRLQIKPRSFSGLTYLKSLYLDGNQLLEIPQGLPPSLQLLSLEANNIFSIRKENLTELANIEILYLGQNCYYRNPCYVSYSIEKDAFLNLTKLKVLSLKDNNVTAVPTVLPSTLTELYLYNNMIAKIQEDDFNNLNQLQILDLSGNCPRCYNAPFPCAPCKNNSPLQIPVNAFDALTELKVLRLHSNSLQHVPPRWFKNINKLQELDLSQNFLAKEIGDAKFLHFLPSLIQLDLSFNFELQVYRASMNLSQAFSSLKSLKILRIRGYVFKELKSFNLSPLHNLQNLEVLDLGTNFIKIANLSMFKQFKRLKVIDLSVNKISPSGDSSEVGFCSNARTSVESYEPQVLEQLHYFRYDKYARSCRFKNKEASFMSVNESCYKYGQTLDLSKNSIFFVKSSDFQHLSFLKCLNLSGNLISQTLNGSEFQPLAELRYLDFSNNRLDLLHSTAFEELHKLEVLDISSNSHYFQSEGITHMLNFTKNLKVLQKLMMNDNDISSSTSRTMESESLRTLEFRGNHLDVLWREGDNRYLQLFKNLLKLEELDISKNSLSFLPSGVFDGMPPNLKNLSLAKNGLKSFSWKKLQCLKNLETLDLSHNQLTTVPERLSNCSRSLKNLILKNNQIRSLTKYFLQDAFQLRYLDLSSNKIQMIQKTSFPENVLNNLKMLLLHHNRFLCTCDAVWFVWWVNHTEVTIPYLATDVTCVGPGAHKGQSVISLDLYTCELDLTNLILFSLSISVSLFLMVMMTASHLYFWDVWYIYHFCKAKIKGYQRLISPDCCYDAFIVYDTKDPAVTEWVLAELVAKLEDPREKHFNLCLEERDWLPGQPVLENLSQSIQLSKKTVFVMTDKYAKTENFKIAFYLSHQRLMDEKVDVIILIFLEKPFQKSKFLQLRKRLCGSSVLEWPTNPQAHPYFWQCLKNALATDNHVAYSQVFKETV
Text: Table A presents biological activity data for compounds disclosed herein. One set of data relates TLR7 agonism activity using the HEK-Blue™ TLR7 reporter assay, as described in Example 11 hereinbelow. Another set of data relates to the induction of interleukin 6 (IL-6), a cytokine that plays an important role in the TLR7 pathway. […] In some instances, more that one TLR7 agonism or IL-6 induction assay was made; if so, the reported value is an average.
This example describes a method for assaying TLR7 agonist activity of the compounds disclosed in this specification.
HEK-Blue™ TLR7 cells were added to each well of a 384-well tissue-culture plate (15,000 cells per well) and incubated 16-18 h at 37° C., 5% CO2. Compounds (100 nl) were dispensed into wells containing the HEK-Blue™ TLR cells and the treated cells were incubated at 37° C., 5% CO2. After 18 h treatment ten microliters of freshly-prepared Quanti-Blue™ reagent (Invivogen) was added to each well, incubated for 30 min (37° C., 5% CO2) and SEAP levels measured using an Envision plate reader (OD=620 nm). […] EC50's can be determined with software such as Graphpad Prism™.

interleukin 6 (IL-6) = assay: Interleukin 6 induction assay in human whole blood (AlphaLISA); format: cell-based; settings: Homo sapiens, 20 h, 20 h at 37° C., 100% set by resiquimod reference at 10 μM, average if more than one assay, read-out: IL-6 Induction EC50 (nM) (normalized 10 μM)
Text: Table A presents biological activity data for compounds disclosed herein. One set of data relates TLR7 agonism activity using the HEK-Blue™ TLR7 reporter assay, as described in Example 11 hereinbelow. Another set of data relates to the induction of interleukin 6 (IL-6), a cytokine that plays an important role in the TLR7 pathway. […] In some instances, more that one TLR7 agonism or IL-6 induction assay was made; if so, the reported value is an average. This example describes a method for assaying interleukin 6 (IL 6) induction by compounds disclosed in this specification. Compounds suspended in DMSO were transferred to individual wells of a Matrix Technologies clear, V-bottom 384-well plate using ECHO acoustic liquid handling technology (25 nL per well). Human whole-blood samples (25 uL) were added to each well using a CyBio FeliX liquid handling instrument and the plate was shaken on a plate shaker for three minutes before incubating the reaction mixtures at 37° C. for 20 h. Basel RPMI 1640 medium (supplemented with L-glutamine) was then added to each well (25 uL per well) prior to liberating plasma from each sample by centrifugation (450×g, 5 min, ambient temperature). Treated plasma samples (3 uL) were subsequently transferred to individual wells of a white, shallow, 384-well ProxiPlate (PerkinElmer) using the FeliX liquid handling instrument and their IL6 levels were measured using AlphaLISA technology as described by the manufacturer (PerkinElmer).

Row | Structure (SMILES) | EC50 (human TLR7) [nM] | EC50 (interleukin 6 (IL-6)) [nM]
1 | Nc1nc2nc3c1nc(O)n3Cc1cc(cc(Oc3ccc(CNC4CCC4)cc3)c1)CCCCCO2 [IIa-16] | 42 | 250
2 | Nc1nc2nc3c1nc(O)n3Cc1ccc(-c3ccc(C(=O)NC4CNC4)cc3)c(c1)C/C=C\CCO2 [IIb-30] | 1.6 | 36
3 | Nc1nc2nc3c1nc(O)n3Cc1ccc(O)c(c1)C/C=C\CCO2 [Compound B4, reference compound] | 17 | 960
4 | Nc1nc2nc3c1nc(O)n3Cc1ccc(-c3ccc(CNC4CCC4)nc3)c(c1)C/C=C/CCO2 [IIb-05] | 0.22 | 0.62
5 | Nc1nc2nc3c1nc(O)n3Cc1ccc(-c3ccc(CNC4CCC4)cc3)c(c1)C/C=C\CCO2 [IIb-11] | 0.33 | 0.68
6 | Nc1nc2nc3c1nc(O)n3Cc1ccc(-c3ccc(CNC4CC(F)(F)C4)cc3)c(c1)C/C=C/CCO2 [IIb-25] | 1.5 | 0.81
7 | Nc1nc2nc3c1nc(O)n3Cc1cc(cc(Oc3cccc(CNC4CCC4)c3)c1)C/C=C/CCO2 [IIa-14] | 19 | 140
8 | Nc1nc2nc3c1nc(O)n3Cc1ccc(-c3ccc(CNC4CCOCC4)cc3)c(c1)C/C=C\CCO2 [IIb-34] | 0.12 | 0.76
9 | Nc1nc2nc3c1nc(O)n3Cc1ccc(-c3cnn(CCNC4CC4)c3)c(c1)C/C=C\CCO2 [IIb-02] | 0.35 | 1.3
10 | Nc1nc2nc3c1nc(O)n3Cc1ccc(-c3cnn(CCNC4CCC4)c3)c(c1)C/C=C/CCO2 [IIb-07] | 0.22 | 1.6
11 | Nc1nc2nc3c1nc(O)n3Cc1cc(cc(OC3CCNCC3)c1)C/C=C/CCO2 [IIc-02] | 23 | 200
12 | COC(=O)CNCc1ccc(Oc2ccc3cc2C/C=C/CCOc2nc(N)c4nc(O)n(c4n2)C3)cc1 [IIa-10] | 4.3 | 50
13 | Nc1nc2nc3c1nc(O)n3Cc1ccc(Oc3cccc(CNC4CC4)c3)c(c1)C/C=C/CCO2 [IIa-03] | 5.3 | 47
14 | Nc1nc2nc3c1nc(O)n3Cc1ccc(OCC(=O)NC3CNC3)c(c1)C/C=C/CCO2 [IIe-02] | 70 | 1100
15 | Nc1nc2nc3c1nc(O)n3Cc1ccc(-c3ccc(CNC4CCC4)cc3)c(c1)CCCCCO2 [IIb-12] | 4.2 | 13
16 | Nc1nc2nc3c1nc(O)n3Cc1ccc(-c3cc(C(=O)NCCCN4CCCC4=O)[nH]n3)c(c1)C/C=C/CCO2 [IIb-40] | 14 | 160
17 | Nc1nc2nc3c1nc(O)n3Cc1ccc(-c3cnn(CCN4CCOCC4)c3)c(c1)C/C=C/CCO2 [IIb-37] | 3.8 | 180
18 | Nc1nc2nc3c1nc(O)n3Cc1ccc(-c3ccc(CNC4CCC4)cc3)c(c1)C/C=C\CCCO2 [IIb-17] | 0.91 | 0.99
19 | Nc1nc2nc3c1nc(O)n3Cc1ccc(-c3ccc(C(=O)NC4CNC4)cc3)c(c1)C/C=C/CCO2 [IIb-32] | 4.1 | 32
20 | Nc1nc2nc3c1nc(O)n3Cc1ccc(Oc3cccc(CNC4CCC4)c3)c(c1)C/C=C\CCO2 [IIa-07] | 4.2 | 2.9
21 | Nc1nc2nc3c1nc(O)n3Cc1ccc(-c3ccc(CNC4CC(O)C4)cc3)c(c1)C/C=C/CCO2 (stereo not drawn) [IIb-23] | 0.81 | 2
22 | CC(=O)N1CC(NCc2ccc(-c3ccc4cc3C/C=C\CCOc3nc(N)c5nc(O)n(c5n3)C4)cc2)C1 [IIb-27] | 0.62 | 4
23 | Nc1nc2nc3c1nc(O)n3Cc1ccc(Oc3cccc(CNC4CC4)c3)c(c1)C/C=C\CCO2 [IIa-05] | 7.2 | 18
24 | Nc1nc2nc3c1nc(O)n3Cc1cc(cc(Oc3ccc(CNC4CC4)cc3)c1)C/C=C\CCO2 [IIa-15] | 9.2 | 57

Reference: US11485741B2, “Macrocyclic toll-like receptor 7 (TLR7) agonists” (BRISTOL-MYERS SQUIBB COMPANY, priority 2018, dated 2022)
